Test results as given in patent US11759436B2, “Dosage regimen of an S1P receptor modulator” (Novartis AG, priority 2009, dated 2023).

What was measured:
[1] = tested on: patients with Relapsing-remitting Multiple Sclerosis; experiment: Study of oral fingolimod 0.5 mg/day or 1.25 mg/day vs interferon beta1-a in patients with RRMS; type: in vivo, human
Description: The patients are seen clinically every month for 3 months and every 3 months thereafter. The Expanded Disability Status Scale (EDSS) is performed every 3 months, the MS Functional Composite (MSFC) every 6 months, and MRI annually. Monitoring by ophthalmic examination, dermatologic examination, pulmonary function tests, chest X-ray and/or CT, Holter monitoring, and echocardiography are performed. Participants who completed 1 year on treatment are offered an optional extension phase.

[2] = tested on: Patients with moderate asthma; experiment: Study of FTY720 vs placebo in patients with moderate asthma (pulmonary function tests, safety); type: in vivo, human; settings: daily dosage of 0.5 mg, 10 day treatment
Description: Patients with moderate asthma are divided into 3 dosing cohorts of 12 patients each. In each cohort, the 12 patients are randomized to FTY720 (0.5 mg, 1.25 mg, and 2.5 mg in cohorts 1, 2, and 3 respectively) or placebo in a 3:1 ratio resulting in 9 patients treated with FTY720 at each dose level and 9 patients treated with placebo. The study consists of a screening period of between 12 and 26 days, baseline and a 10 day treatment period followed by a study completion evaluation (performed 1-7 days after the last dose). Two screening visits are performed, the initial Screening visit and a second visit at Day −7 (+/−1 day). […] Short-acting […] agonist use prior to treatment with study medication is also recorded in this 14 day period. […] PFT profiling is assessed at 7 time points during the visit and routine baseline evaluations are performed. On Day 1, patients are randomized in a 3:1 ratio to FTY720 or placebo and PFT profiling is assessed at 8 time points (namely pre-dose, then at 1, 2, 3, 4, 5, 6 and 12 hours post-dose). PFT assessments are also performed on Days 2, 3, 7 (all single time points assessed at approximately the same clock time as the 6 hours post-dose PFT on Day 1) and Day 10 (7 time points, namely pre-dose and then at 1, 2, 3, 4, 5 and 6 hours post-dose). […] The magnitude of the bronchoconstriction is primarily assessed by the baseline-adjusted FEV1 AUC0-6 h on Day 1. […]

[3] = tested on: Cardiac Rate and Rhythm in Healthy Patients; settings: administration of 1.25 mg of FTY720; healthy subjects; cited from earlier work
[4] = both fingolimod groups (0.5 and 1.25 mg/day), month 12

For `CCCCCCCCc1ccc(CCC(N)(CO)CO)cc1.Cl` [Fingolimod, 2-amino-2-[2-(4-octylphenyl)ethyl]propane-1,3-diol], the “proportion of relapse-free patients” value ([1]; RRMS patients, fingolimod, dose not stated) was 83%, the “reduction in relapses vs interferon beta1-a” value ([1]; RRMS patients, higher dose (1.25 mg/day)) was 38% and the “reduction in relapses vs interferon beta1-a” value ([1]; RRMS patients, lower dose (0.5 mg/day)) was 52%. The Annualized relapse rate ([1]; RRMS patients, oral fingolimod 0.5 mg/day) was 0.16, the Annualized relapse rate ([1]; RRMS patients, oral fingolimod 1.25 mg/day) was 0.20 and the “MRI lesion activity: number of gadolinium-enhancing T1 lesions” value [1, 4] was “reduction”. For the same compound, the “MRI lesion activity: number of new or newly enlarging T2 lesions” value [1, 4] was “reduction”, the Basal-cell carcinoma ([1]; fingolimod 0.5 mg/d) was 3 (0.7) n (%) and the Breast cancer ([1]; fingolimod 0.5 mg/d) was 2 (0.5) n (%). The Malignant melanoma ([1]; fingolimod 0.5 mg/d) was 3 (0.7) n (%), the Squamous-cell carcinoma ([1]; fingolimod 0.5 mg/d) was 0 n (%) and the Basal-cell carcinoma ([1]; fingolimod 1.25 mg/day) was 2 (0.5) n (%). For the same compound, the Breast cancer ([1]; fingolimod 1.25 mg/day) was 2 (0.5) n (%), the Malignant melanoma ([1]; fingolimod 1.25 mg/day) was 0 n (%) and the Squamous-cell carcinoma ([1]; fingolimod 1.25 mg/day) was 0 n (%). For the same compound, the safety and tolerability [2] was “safe and well tolerated” and the “decrease in heart rate” value [3] was “approximately 8 beets/min”.
